{"source": "patent US20060002922A1", "about": "“Method for preventing or treating obesity by modulating the activities of the pentose phosphate patway” (Minkon Biotechnology, Inc., priority 2004, published 2006)", "key": {"[1]": {"tested_on": "C57BL/6 mice fed with D12492", "assay": "Diet-induced obesity in C57BL/6 mice fed high fat diet D12492, oral OT", "type": "in vivo", "experimental": "D12492 is a very high fat containing diet (with 60 kcal % fat), and has been widely used to induce obesity in rodents.\nA dose of 10-20 mg/kg/day of OT was administered orally to C57BL/6 mice fed with D12492. […] In contrast, the control mice developed obesity.\n4 groups of C57BL/6 mice (5 mice each group) were used to test the dosage dependence of oxythiamine on weight control. The negative control was fed a regular diet, and positive group was fed a high fat diet only. Test groups were fed high fat diet and each orally administered with OT at a concentration of 2 mg/kg/day or 10 mg/kg/day."}, "[2]": {"tested_on": "normal as well as fatty mice", "assay": "Higher dosage of OT: weight loss in normal and fatty mice", "type": "in vivo", "source_text": "This is consistent with the result obtained from the published result of TKT haplo-insufficiency mice."}, "[3]": {"tested_on": "liver, heart and kidney of mice hosting Ehrlich's tumor", "settings": "400 mg/kg/day of OT; cited from earlier work"}, "[4]": {"tested_on": "tumors in animals", "settings": "100-400 mg/kg of OT; cited from earlier work"}}}
{"compound": "Cc1ncc(C[n+]2csc(CCO)c2C)c(=O)[nH]1", "note": "[OT, Oxythiamine]", "values": [{"measurement": "development of diet-induced obesity", "setting": "[1]; 10-20 mg/kg/day orally, C57BL/6 mice fed D12492, control mice developed obesity", "value": "Diet-induced obesity was not developed"}, {"measurement": "pathological studies of OT treated mice", "setting": "[1]; FIG. 1 study, high fat diet plus OT", "value": "near normal"}, {"measurement": "progression of obesity development", "setting": "[1]; OT as low as 2 mg/kg/day", "value": "reduce the progression of obesity development significantly"}, {"measurement": "dosage dependence of prevention of weight gain", "setting": "[1]; mice fed D12492, test groups 2 or 10 mg/kg/day orally", "value": "dosage dependent effects on preventing weight gain"}, {"measurement": "growth rate compared to same age mice fed a standard diet", "setting": "[1]; mice fed D12492 plus OT", "value": "normal growth rate"}, {"measurement": "effect on body weight", "setting": "[2]; 180 mg/kg/day, normal as well as fatty mice", "value": "strong effect of weight loss"}, {"measurement": "fat mass", "setting": "[2]; OT fed mice", "value": "Preferential reduction of fat mass"}, {"measurement": "histotoxicity (signs of toxicity in liver, heart and kidney vs controls)", "setting": "[3]", "value": "No signs of toxicity were observed"}, {"measurement": "treatment of tumors in animals", "setting": "[4]", "value": "successfully used to treat tumors"}]}
